≈ marks a conversion by molar mass, not a printed value.
What was measured:
Assay type in all cases: cell-based
[1] = tested on: Acinetobacter baumannii (carbapenem-resistant clinical isolates; ATCC19606); assay: MIC by micro broth dilution (CLSI), Acinetobacter baumannii; details: Acinetobacter baumannii; for MIC50 / MIC90: ATCC19606, Clinical strain; for MIC50: read-out: MIC50; for MIC90: read-out: MIC90; for MIC: Standard strain ATCC19606, read-out: MIC
Method in brief: (§1)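 First, DMSO solutions were diluted over 128 to 0.06 mg/L in CAMHB; next, overnight cultures adjusted to 0.5 McFarland and diluted 100-fold were added to give 10^5 CFU/mL; then incubation ran 20 hours at 35±2° C, with CLSI 2019 M100 used for interpretation.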

[2] = tested on: Prostate cancer cell line LNcaP; assay: Inhibitory activity on cancer cells, CellTiter-Glo viability, LNcaP; details: Homo sapiens, 72 hours treatment
Description: (§2) HUVEC (purchased from Allcells Biological Technology (Shanghai) Co., Ltd.); UM-UC-3 (ATCC); LNCaP (ATCC); RM-1 (purchased from Nanjing Cobioer Biosciences Co., Ltd.) (1) On the first day, the cells were seeded in a 96-well plate, and the previous medium was poured off. 5 mL of DPBS was added to wash the cells, and then removed by a pipette and discarded. Then, 1 mL of trypsin (0.25%) was added, and the plate was placed in a cell culture incubator at 37 °C, 5% CO2 for digestion, and taken out after about 2 to 5 minutes. New corresponding medium was added, and pipetted to resuspend the cells evenly, and the cells were then counted with an automated cell counter. Regarding HUVEC, the medium used was endothelial cell complete medium; regarding UM-UC-3, the medium used was 89 v % EMEM+10 v % fetal bovine serum+1 v % penicillin-streptomycin double anti-body; regarding LNcaP, the medium used was 89 v % RPM11640+10 v % fetal bovine serum+1 v % penicillin-streptomycin double anti-body; and regarding RM1, the medium used was 89 v % DMEM+10 v % fetal bovine serum+1 v % penicillin-streptomycin double anti-body. (2) HUVEC cells were seeded in columns 1 to 11 of a 96-well plate (Corning, Cat. No. 3610) at a density of 2000 cells per well in 100 μL of medium, and the medium free of cell was added to the wells of column 12. The other three types of cells were also seeded, wherein UM-UC-3 and RM-1 cells were seeded at a density of 3000 cells per well, and LNCap cells were seeded at a density of 5000 cells per well. Then, the plate was placed in an incubator at 37° C., 5% CO2 for 24 hours. (3) On the second day, the compounds of the present invention and the reference drug nitroxoline (obtained according to the preparation method disclosed in the prior art) were diluted in gradient (2.5 folds, started at 100 μmol) to obtain 8 dose points (there were a total of 8 columns of wells; the first column of wells had the highest concentration, the concentration decreased in turn, and the last column of wells had the lowest concentration). 10 μL of the compound diluted in gradient was added to the 100 μL of cells in column 1 to column 10 with an 8-channel pipette. 10 μL of the corresponding medium containing 0.33 v % DMSO was added to column 11 and column 12. The plate was incubated in an incubator at 37° C., 5% CO2 for 72 hours (note: column 11 was used as MAX well with cells and no compounds; and column 12 was used as MIN well with no cells and no compounds). (4) After treating with the compounds of the present invention for 72 hours, the cell viability detection reagents in the above CellTiter-Glo® assay kit were added to the 96-well plate at 50 μL per well according to the instructions. The plate was shaken on a shaker in the dark for 5 to 10 minutes, and then the cell activity was determined by a multifunctional microplate reader. Finally, the growth inhibition of the compounds of the present invention on the cells was plotted by XLFIT 5.3 software, and the IC50 values of the compounds of the present invention were calculated.

[3] = tested on: Staphylococcus aureus (methicillin-resistant and sensitive clinical isolates; ATCC29213); assay: MIC by micro broth dilution (CLSI), Staphylococcus aureus; details: for MIC50 / MIC90: Clinical strain; for MIC50: read-out: MIC50; for MIC90: read-out: MIC90; for MIC: Standard strain ATCC29213, read-out: MIC
Method in brief: as §1

[4] = tested on: Mouse prostate cancer cell line RM1; assay: Inhibitory activity on cancer cells, CellTiter-Glo viability, RM1; details: 72 hours treatment
Description: as §2

[5] = tested on: Escherichia coli (carbapenem-resistant clinical isolate; ATCC25922); assay: MIC by micro broth dilution (CLSI), Escherichia coli; details: Escherichia coli; for MIC50 / MIC90: ATCC25922, Clinical strain; for MIC50: read-out: MIC50; for MIC90: read-out: MIC90; for MIC: Standard strain ATCC25922, read-out: MIC
Method in brief: as §1

[6] = tested on: Bladder cancer cell line UM-UC-3; assay: Inhibitory activity on cancer cells, CellTiter-Glo viability, UM-UC-3; details: Homo sapiens, UMUC3, 72 hours treatment
Description: as §2

[7] = tested on: Endothelial cell line HUVEC; assay: Inhibitory activity on cells, CellTiter-Glo viability, HUVEC; details: Homo sapiens, 72 hours treatment
Description: as §2

| Structure (SMILES) | MIC50 [1] | MIC90 [1] | MIC [1] | IC50 [2] | MIC50 [3] | MIC90 [3] | MIC [3] | IC50 [4] | MIC50 [5] | MIC90 [5] | MIC [5] | IC50 [6] | IC50 [7] |
| --- | --- | --- | --- | --- | --- | --- | --- | --- | --- | --- | --- | --- | --- |
| O=[N+]([O-])c1ccc2c(F)ccnc2c1O [Example 27, 4-Fluoro-7-nitroquinolin-8-ol] | > 128 µg/mL | > 128 µg/mL | > 128 µg/mL | 11.9 µM | 64 µg/mL (≈ 307 µM) | 64 µg/mL (≈ 307 µM) | 64 µg/mL (≈ 307 µM) | 13.2 µM | 128 µg/mL (≈ 615 µM) | > 128 µg/mL | 64 µg/mL (≈ 307 µM) | 4.11 µM | 3.17 µM |
| O=[N+]([O-])c1ccc2c(Cl)c(C3CC3)cnc2c1O [Example 74, 4-chloro-3-cyclopropyl-7-nitroquinolin-8-ol] | 128 µg/mL (≈ 484 µM) | 128 µg/mL (≈ 484 µM) | 4 µg/mL (≈ 15.1 µM) | 0.53 µM | 0.25 µg/mL (≈ 0.945 µM) | 0.5 µg/mL (≈ 1.89 µM) | 0.5 µg/mL (≈ 1.89 µM) | 7.64 µM | 128 µg/mL (≈ 484 µM) | 128 µg/mL (≈ 484 µM) | > 128 µg/mL | 1.57 µM | 1.28 µM |
| CS(=O)(=O)N1CCN(c2ccnc3c(O)c([N+](=O)[O-])cc(Cl)c23)CC1 [Example 48, 5-Chloro-4-(4-(methylsulfonyl)piperazin-1-yl)-7-nitroquinolin-8-ol] | > 128 µg/mL | > 128 µg/mL | > 128 µg/mL | 10.6 µM | 64 µg/mL (≈ 165 µM) | 64 µg/mL (≈ 165 µM) | 64 µg/mL (≈ 165 µM) | 14.4 µM | > 128 µg/mL | > 128 µg/mL | > 128 µg/mL | 10.6 µM | 6.58 µM |
| O=[N+]([O-])c1cc(Cl)c2c(OCCF)ccnc2c1O [Example 43, 5-Chloro-4-(2-fluoroethoxy)-7-nitroquinolin-8-ol] | 128 µg/mL (≈ 447 µM) | 128 µg/mL (≈ 447 µM) | 128 µg/mL (≈ 447 µM) | 6.26 µM | 8 µg/mL (≈ 27.9 µM) | 8 µg/mL (≈ 27.9 µM) | 8 µg/mL (≈ 27.9 µM) | 10.6 µM | 128 µg/mL (≈ 447 µM) | 128 µg/mL (≈ 447 µM) | 128 µg/mL (≈ 447 µM) | 12.3 µM | 7.54 µM |
| O=[N+]([O-])c1cc(Cl)c2c(N3CCCC3)ccnc2c1O [Example 42, 5-Chloro-7-nitro-4-(pyrrolidin-1-yl)quinolin-8-ol] | > 128 µg/mL | > 128 µg/mL | 128 µg/mL (≈ 436 µM) | 17.4 µM | 32 µg/mL (≈ 109 µM) | 32 µg/mL (≈ 109 µM) | 32 µg/mL (≈ 109 µM) | 25.4 µM | > 128 µg/mL | > 128 µg/mL | 128 µg/mL (≈ 436 µM) | 42 µM | 33 µM |
| O=[N+]([O-])c1ccc2c(O)ccnc2c1O [Example 30, 7-Nitroquinoline-4,8-diol] | > 128 µg/mL | > 128 µg/mL | > 128 µg/mL | > 100 µM | > 128 µg/mL | > 128 µg/mL | > 128 µg/mL | > 100 µM | > 128 µg/mL | > 128 µg/mL | > 128 µg/mL | > 100 µM | > 100 µM |
| COC(=O)N1CCN(c2ccnc3c(O)c([N+](=O)[O-])ccc23)CC1 [Example 26] | 64 µg/mL (≈ 193 µM) | > 128 µg/mL | > 128 µg/mL | 11.9 µM | 16 µg/mL (≈ 48.1 µM) | 64 µg/mL (≈ 193 µM) | 128 µg/mL (≈ 385 µM) | 12.5 µM | > 128 µg/mL | > 128 µg/mL | 128 µg/mL (≈ 385 µM) | 11.4 µM | 15.1 µM |
| Cl.O=[N+]([O-])c1cc(Cl)c2c(OCc3ccccc3)ccnc2c1O [Example 67, 4-(benzyloxy)-5-chloro-7-nitroquinolin-8-ol hydrochloride] | > 128 µg/mL | > 128 µg/mL | > 128 µg/mL | 8.68 µM | 1 µg/mL | 64 µg/mL | 2 µg/mL | 13.2 µM | > 128 µg/mL | > 128 µg/mL | > 128 µg/mL | 9.28 µM | 3.23 µM |
| CC(C)C(=O)N1CCN(c2ccnc3c(O)c([N+](=O)[O-])cc(Cl)c23)CC1 [Example 50, 4-(5-Chloro-8-hydroxy-7-nitroquinolin-4-yl)-1-(2,2-dimethylacetyl)piperazine] | > 128 µg/mL | > 128 µg/mL | > 128 µg/mL | 2.86 µM | > 128 µg/mL | > 128 µg/mL | > 128 µg/mL | 4.29 µM | > 128 µg/mL | > 128 µg/mL | > 128 µg/mL | 3.4 µM | 2.94 µM |
| O=[N+]([O-])c1cc(F)c2c(N3CCC(C(F)(F)F)CC3)ccnc2c1O [Example 70, 5-Fluoro-7-nitro-4-(4-(trifluoromethyl)piperidin-1-yl)quinolin-8-ol] | > 128 µg/mL | > 128 µg/mL | > 128 µg/mL | 0.96 µM | 2 µg/mL (≈ 5.57 µM) | 4 µg/mL (≈ 11.1 µM) | 4 µg/mL (≈ 11.1 µM) | 2.62 µM | > 128 µg/mL | > 128 µg/mL | > 128 µg/mL | 5.28 µM | 2.78 µM |
| O=[N+]([O-])c1cc(Cl)c2c(N3CCNCC3)ccnc2c1O [Example 37, 5-Chloro-7-nitro-4-(piperazin-1-yl)quinolin-8-ol] | > 128 µg/mL | > 128 µg/mL | > 128 µg/mL | 40.4 µM | 128 µg/mL (≈ 415 µM) | > 128 µg/mL | 128 µg/mL (≈ 415 µM) | > 50 µM | > 128 µg/mL | > 128 µg/mL | > 128 µg/mL | > 50 µM | > 50 µM |
| COC(=O)[C@@H]1CCCN1c1ccnc2c(O)c([N+](=O)[O-])ccc12 [Example 28, Methyl (8-hydroxy-7-nitroquinolin-4-yl)-L-prolinate] | 64 µg/mL (≈ 202 µM) | > 128 µg/mL | > 128 µg/mL | 33 µM | 32 µg/mL (≈ 101 µM) | 32 µg/mL (≈ 101 µM) | > 128 µg/mL | 17 µM | > 128 µg/mL | > 128 µg/mL | > 128 µg/mL | 42.3 µM | 17.3 µM |
| CNC(=O)N1CCN(c2ccnc3c(O)c([N+](=O)[O-])cc(Cl)c23)CC1 [Example 44, 4-(5-Chloro-8-hydroxy-7-nitroquinolin-4-yl)-N-methylpiperazine-1-carboxamide] | > 128 µg/mL | > 128 µg/mL | > 128 µg/mL | > 50 µM | 32 µg/mL (≈ 87.5 µM) | 32 µg/mL (≈ 87.5 µM) | 32 µg/mL (≈ 87.5 µM) | > 50 µM | > 128 µg/mL | > 128 µg/mL | > 128 µg/mL | > 50 µM | > 50 µM |
| O=C1CCN(c2ccnc3c(O)c([N+](=O)[O-])cc(Cl)c23)CC1 [Example 56, 1-(5-Chloro-8-hydroxy-7-nitroquinolin-4-yl)piperidin-4-one] | > 128 µg/mL | > 128 µg/mL | > 128 µg/mL | 47.6 µM | 64 µg/mL (≈ 199 µM) | 64 µg/mL (≈ 199 µM) | 128 µg/mL (≈ 398 µM) | 68.5 µM | > 128 µg/mL | > 128 µg/mL | > 128 µg/mL | 52.8 µM | 32.1 µM |
